Experimental data from PMC12428754, “Testing Strategies for Metabolite-Mediated Neurotoxicity” (International Journal of Molecular Sciences, 2025).
Like-named read-outs stand apart in the source and are kept apart here.

How the values were obtained:
LUHMES cells = test: MitoMet (UKN4b) neurite outgrowth assay; format: cell-based, human; settings: for IC25: read-out: BMC25 neurite outgrowth; for fold change between BMC25 values of parent and metabolite (potency ratio, parent divided by metabolite): listed under the metabolite, >1 = metabolite more potent
Method: Figure 1 (A) A strategy scheme to assess metabolite-mediated hazard in NAMs used for neurotoxicity or developmental neurotoxicity. Parent and metabolite compounds are tested separately in the respective assay. This strategy is applicable when there is prior knowledge of metabolite formation. A decision rule based on the relative toxicities (X) of the parent and metabolite may be applied to decide whether next-generation risk assessment (NGRA) should be applied to the metabolite. The value of X may be defined according to the problem formulation and the NAM used. (B) An assay scheme of the neurite outgrowth assay used here for exemplification: Proliferating LUHMES cells were replated one day before differentiation was initiated (day −1). After two days (day 2) in differentiation medium, the cells were replated into assay format (96-well). At this point, neurite growth was re-initiated. The cells were treated with toxicants 1 h after replating. Neurite outgrowth and viability were determined 24 h later, using automated high content imaging. (C) Comparison of neurite outgrowth of cultures treated with bromethalin and desmethyl-bromethalin one exemplary parent/metabolite pair (chemical structures shown). […] The curves are based on data from three independent experiments and were fitted using a four-parameter Hill function. Data points shown are arithmetic means of data from independent experiments ±SEM. In each independent experiment, the technical replicates were measured and averaged. A benchmark response (BMR) of 25% was used as specified in the detailed assay description, and the respective benchmark concentration (BMC25) was determined. […] (D) Microscopic images of calcein-stained LUHMES cells. Similar images are used for neurite quantification. Treatment with 40 nM of the parent (left) or metabolite (right). The scale bar in orange corresponds to 50 µm. […] It stands under panel C and to the right of panel D, and was assigned to C.
The MitoMet neurite outgrowth assay was performed as previously described. In brief, all cell culture dishes and flasks were pre-coated with 50 μg/mL poly-l-ornithine (PLO) and 1 μg/mL fibronectin. Proliferating LUHMES cells were maintained in AdvDMEM/F12 containing L-glutamine (2 mM), N2 supplement (1x), and FGF (40 ng/mL). For pre-differentiation, the cells were replated at a density of 46,000 cells/cm^2 one day prior to the induction of differentiation (defined as the day of differentiation, Day −1). Differentiation was initiated by exchanging the culture medium for AdvDMEM/F12 supplemented with L-glutamine (2 mM), N2 supplement (1x), dibutyryl-cAMP (1 mM), tetracycline (1 µg/mL), and GDNF (2 ng/mL). After two days of differentiation (Day 2), the cells were replated (100,000 cells/cm^2) into 96-well plates. The final assay medium consisted of glucose-free AdvDMEM/F12 supplemented with galactose (18 mM), L-glutamine (2 mM), and tetracycline (1 µg/mL). One hour after replating, the cells were treated with a 10× concentrated stock solution of the test compound. Neurite outgrowth and viability were determined 24 h later, using automated high content imaging.
(§1) The image acquisition and analysis were conducted according to established protocols. The cells were stained with Hoechst H-33342 (1 µg/mL) to visualise nuclei and calcein-AM (1 µM) to label viable cell structures. Fluorescent images were acquired using an automated imaging system.

[1] = system: hiPSC-derived immature human dorsal root ganglia neuron-like cells; test: PeriTox (UKN5a) neurite outgrowth assay; format: cell-based
Method: PeriTox assay was performed as previously described. In brief, cryopreserved hiPSC-derived immature human dorsal root ganglia neuron-like cells were thawed and plated at a density of 100,000 cells/cm^2 into matrigel-coated 96-well plates. The cells were cultured in 75 µL PeriTox differentiation medium (PDM) consisting of 25% KSR-S and 75% N2-S media supplemented with 1.5 µM CHIR99021, 1.5 µM SU5402, and 5 µM DAPT (KSR-S: knockout DMEM with 15% serum replacement, 1x Glutamax, 1x nonessential amino acids, and […] beta-mercaptoethanol; N2-S: DMEM/F12, with 2 mM Glutamax, 0.1 mg/mL apotransferrin, 1.55 mg/mL glucose, 25 µg/mL insulin, […] putrescine, 30 nM selenium, and 20 nM progesterone). After one hour, 25 µL PDM with 4x concentrated serial dilutions of the test compounds was added to the cells.
as §1, with “system. An image analysis algorithm detected nuclei to define somatic regions, which were then excluded from the total calcein-positive area. The remaining signal was quantified as the neurite area.” for “system.”
In the first step, matched technical replicates were averaged. […] For visualisation, GraphPad Prism 9 was used. […]
Supplementary Figure S1: Comparison of data from the MitoMet test and the PeriTox test. A) Exposure scheme for the PeriTox test (UKN5a):
For testing, cryopreserved hiPSC-derived immature human dorsal root ganglia neuron-like cells were thawed and plated into 96-well plates. Cells were treated with toxicants at one h after plating. Neurite outgrowth and viability were determined at 24 h later, using automated high content imaging. B) Benchmark concentrations (BMC25) were calculated as a measure for “onset of toxicity” for the MitoMet (UKN4b; as described in Figure 1) and UKN5a assay. If no BMC could be determined, the highest tested concentration was used as surrogate endpoint. The arrows indicate the sensitivity shifts of parent vs metabolite in the respective assay. […]

[2] = Homo sapiens, benchmark response 25%, neurite area, 24 h exposure, three independent experiments

| Structure (SMILES) | IC25 (LUHMES cells; [2]) [nM] | fold change between BMC25 values of parent and metabolite (potency ratio, parent divided by metabolite) (LUHMES cells) [fold] | effect on peripheral neurite outgrowth ([1]; result in words) | IC25 (LUHMES cells; Homo sapiens, 24 h) [nM] | IC25 (LUHMES cells; benchmark response 25%, neurite area, 24 h exposure, three independent experiments) [nM] | parent/metabolite potency ratio (BMC25) ([1]; listed under the metabolite) |
| --- | --- | --- | --- | --- | --- | --- |
| O=C(c1ccccc1)c1ccc(O)cc1 [4-Hydroxybenzophenone] | 78000 | > 6 | neither benzophenone nor its hydroxy metabolite showed any significant effect | – | – | – |
| CN(c1c(Br)cc(Br)cc1Br)c1c([N+](=O)[O-])cc([N+](=O)[O-])cc1C(F)(F)F [Bromethalin] | – | – | – | 790 | 790 | – |
| CCOCn1c(-c2ccc(Cl)cc2)c(C#N)c(Br)c1C(F)(F)F [Chlorfenapyr] | > 10000 | – | – | – | – | – |
| N#Cc1c(-c2ccc(Cl)cc2)[nH]c(C(F)(F)F)c1Br [Tralopyril] | 350 | > 29 | – | – | – | 15 |
